Data: publication PMC9046198, “Peptidoglycan biosynthesis is driven by lipid transfer along enzyme-substrate affinity gradients” (Nature Communications, 2022)

Tests used:
MurG [1] = target: T1, MurG (Escherichia coli, UniProt P17443); assay: native MS titration ([…] MurG, […] lipid I), apparent Kd; type: binding
T1 construct: MurG-GFP-His6 fusion, tag removed with TEV protease
T1 sequence (P17443 2-355): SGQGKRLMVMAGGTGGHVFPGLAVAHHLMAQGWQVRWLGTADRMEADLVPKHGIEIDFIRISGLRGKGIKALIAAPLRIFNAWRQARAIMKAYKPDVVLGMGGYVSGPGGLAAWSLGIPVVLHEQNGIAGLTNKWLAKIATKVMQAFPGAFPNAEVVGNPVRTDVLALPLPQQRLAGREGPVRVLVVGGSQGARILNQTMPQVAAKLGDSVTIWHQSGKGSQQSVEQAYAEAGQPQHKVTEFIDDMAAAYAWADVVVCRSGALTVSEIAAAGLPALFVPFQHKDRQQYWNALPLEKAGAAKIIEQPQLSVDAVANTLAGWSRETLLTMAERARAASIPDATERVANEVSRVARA

MurG [2] = target: T1, MurG; assay: turnover by purified MurG (with MraY-bound lipid I) to lipid II monitored by native MS; type: biochemical
MraY [3] = target: T2, MraY (Aquifex aeolicus, UniProt O66465); assay: native MS binding to MraY dimer; also inhibits lipid I synthesis by purified MraY ([…])
T2 construct: wild-type MraY, MBP tag removed with HRV3C protease
T2 sequence (O66465 1-359): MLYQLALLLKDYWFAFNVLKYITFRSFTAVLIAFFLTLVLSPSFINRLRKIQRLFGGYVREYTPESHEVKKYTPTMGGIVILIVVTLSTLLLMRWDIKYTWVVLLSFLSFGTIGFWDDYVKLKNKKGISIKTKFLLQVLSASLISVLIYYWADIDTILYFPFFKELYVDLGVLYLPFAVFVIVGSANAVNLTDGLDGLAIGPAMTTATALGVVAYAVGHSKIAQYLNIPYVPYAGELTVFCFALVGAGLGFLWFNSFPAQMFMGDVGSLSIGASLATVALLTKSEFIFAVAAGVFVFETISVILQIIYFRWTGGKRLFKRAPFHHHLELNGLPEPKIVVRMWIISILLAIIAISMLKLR

MurG [4] = target: T1, MurG; assay: native MS titration, apparent Kd; type: binding
MraY [5] = target: T2, MraY; assay: native MS, endogenous adducts and exogenous C55-P titration; type: binding

## CC(=O)N[C@H]1[C@@H](OP(=O)(O)OP(=O)(O)OC/C=C(/C)CC/C=C(/C)CC/C=C(/C)CC/C=C(/C)CC/C=C(/C)CC/C=C(/C)CC/C=C(/C)CC/C=C(/C)CC/C=C(\C)CC/C=C(\C)CCC=C(C)C)O[C@H](CO)[C@@H](O)[C@@H]1O[C@H](C)C(=O)N[C@@H](C)C(=O)N[C@H](CCC(=O)N[C@@H](CCCCN)C(=O)N[C@H](C)C(=O)N[C@H](C)C(=O)O)C(=O)O [lipid I]
MurG [1]
  Kd: 1.9 ± 0.4 µM

## CC(=O)N[C@H]1[C@@H](OP(=O)(O)OP(=O)(O)OC[C@H]2O[C@@H](n3ccc(=O)[nH]c3=O)[C@H](O)[C@@H]2O)O[C@H](CO)[C@@H](O)[C@@H]1O [UDP-GlcNAc]
MurG [2]
  turnover by purified MurG (with MraY-bound lipid I) to lipid II monitored by nat: we incubated MraY with MurG and UDP-GlcNAc and observed the formation of lipid II

## tunicamycin
MraY [3]
  native MS binding to MraY dimer; also inhibits lipid I synthesis by purified Mra: We also captured the binding of a nucleoside antibiotic tunicamycin to the MraY dimer.

## lipid II
MurG [4]
  Kd: 2.6 ± 0.9 µM

## CC(C)=CCC/C(C)=C/CC/C(C)=C/CC/C(C)=C\CC/C(C)=C\CC/C(C)=C\CC/C(C)=C\CC/C(C)=C\CC/C(C)=C\CC/C(C)=C\CC/C(C)=C\COP(=O)(O)O [C55-P, undecaprenyl phosphate]
MraY [5]
  native MS, endogenous adducts and exogenous C55-P titration: The binding of up to four C55-P molecules per MraY dimer could be clearly resolved
